According to BindingDB's records for PubMed 2905001 (Mcneil Pharmaceutical, 1988):
Where “and” joins values, the source holds several entries; their conditions need not be identical. Identical values can stand only once. Counter-ions that a name gives are not always drawn.

Experiments:
[1] = molecular target: Norepinephrine transporter (Rattus norvegicus, UniProt Q9JIA2)
[2] = molecular target: Sodium-dependent dopamine transporter (Rattus norvegicus, UniProt P23977)
[3] = molecular target: T1, Alpha-1A adrenergic receptor (Rattus norvegicus, UniProt P43140)
T1 sequence (P43140 whole entry): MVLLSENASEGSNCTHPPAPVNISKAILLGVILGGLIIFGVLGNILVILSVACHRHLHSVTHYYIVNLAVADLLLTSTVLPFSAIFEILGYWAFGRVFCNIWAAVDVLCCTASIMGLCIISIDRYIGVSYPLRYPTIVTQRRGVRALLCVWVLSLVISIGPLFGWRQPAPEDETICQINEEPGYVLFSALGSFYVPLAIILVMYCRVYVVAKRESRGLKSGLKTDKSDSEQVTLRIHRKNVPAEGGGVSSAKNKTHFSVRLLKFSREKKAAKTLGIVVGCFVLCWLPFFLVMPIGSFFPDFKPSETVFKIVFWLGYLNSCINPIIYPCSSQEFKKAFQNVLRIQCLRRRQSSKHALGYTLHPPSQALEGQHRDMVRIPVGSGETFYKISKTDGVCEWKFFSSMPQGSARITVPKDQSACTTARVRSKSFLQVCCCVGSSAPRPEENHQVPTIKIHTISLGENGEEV

[4] = molecular target: 5-hydroxytryptamine receptor 2A (Rattus norvegicus, UniProt P14842)
5-hydroxytryptamine receptor 2A, sequence (P14842 whole entry): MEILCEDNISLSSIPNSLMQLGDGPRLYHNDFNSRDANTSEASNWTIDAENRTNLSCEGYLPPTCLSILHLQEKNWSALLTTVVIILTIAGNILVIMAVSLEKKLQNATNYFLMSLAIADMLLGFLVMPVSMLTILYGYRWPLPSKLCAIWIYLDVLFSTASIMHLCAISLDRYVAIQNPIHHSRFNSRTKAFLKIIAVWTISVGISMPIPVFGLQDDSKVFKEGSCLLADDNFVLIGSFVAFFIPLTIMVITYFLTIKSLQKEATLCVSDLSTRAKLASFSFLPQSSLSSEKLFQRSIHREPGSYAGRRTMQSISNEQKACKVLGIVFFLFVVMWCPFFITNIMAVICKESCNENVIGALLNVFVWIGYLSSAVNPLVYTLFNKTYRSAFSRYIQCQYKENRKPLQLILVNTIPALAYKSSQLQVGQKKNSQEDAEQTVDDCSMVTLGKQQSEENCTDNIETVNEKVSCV

[5] = molecular target: Sodium-dependent serotonin transporter (Rattus norvegicus, UniProt P31652)
Sodium-dependent serotonin transporter, sequence (P31652 whole entry): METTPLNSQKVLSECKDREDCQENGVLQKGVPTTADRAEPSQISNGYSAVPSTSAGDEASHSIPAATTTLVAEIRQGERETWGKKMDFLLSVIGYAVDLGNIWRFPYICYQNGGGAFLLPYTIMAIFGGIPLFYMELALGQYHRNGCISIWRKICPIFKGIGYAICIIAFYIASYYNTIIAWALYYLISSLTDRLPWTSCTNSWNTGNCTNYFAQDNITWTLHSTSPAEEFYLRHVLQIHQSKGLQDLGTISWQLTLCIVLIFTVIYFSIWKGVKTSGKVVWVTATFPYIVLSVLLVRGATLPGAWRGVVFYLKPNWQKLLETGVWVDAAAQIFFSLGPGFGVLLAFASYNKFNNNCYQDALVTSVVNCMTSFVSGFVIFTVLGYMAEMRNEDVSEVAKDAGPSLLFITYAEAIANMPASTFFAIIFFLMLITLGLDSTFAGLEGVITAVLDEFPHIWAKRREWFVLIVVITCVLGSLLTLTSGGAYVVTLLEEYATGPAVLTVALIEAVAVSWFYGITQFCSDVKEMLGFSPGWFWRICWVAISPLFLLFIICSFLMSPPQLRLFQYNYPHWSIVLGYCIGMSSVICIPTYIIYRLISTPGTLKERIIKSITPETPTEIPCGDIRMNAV

Sodium-dependent dopamine transporter, sequence (P23977 whole entry): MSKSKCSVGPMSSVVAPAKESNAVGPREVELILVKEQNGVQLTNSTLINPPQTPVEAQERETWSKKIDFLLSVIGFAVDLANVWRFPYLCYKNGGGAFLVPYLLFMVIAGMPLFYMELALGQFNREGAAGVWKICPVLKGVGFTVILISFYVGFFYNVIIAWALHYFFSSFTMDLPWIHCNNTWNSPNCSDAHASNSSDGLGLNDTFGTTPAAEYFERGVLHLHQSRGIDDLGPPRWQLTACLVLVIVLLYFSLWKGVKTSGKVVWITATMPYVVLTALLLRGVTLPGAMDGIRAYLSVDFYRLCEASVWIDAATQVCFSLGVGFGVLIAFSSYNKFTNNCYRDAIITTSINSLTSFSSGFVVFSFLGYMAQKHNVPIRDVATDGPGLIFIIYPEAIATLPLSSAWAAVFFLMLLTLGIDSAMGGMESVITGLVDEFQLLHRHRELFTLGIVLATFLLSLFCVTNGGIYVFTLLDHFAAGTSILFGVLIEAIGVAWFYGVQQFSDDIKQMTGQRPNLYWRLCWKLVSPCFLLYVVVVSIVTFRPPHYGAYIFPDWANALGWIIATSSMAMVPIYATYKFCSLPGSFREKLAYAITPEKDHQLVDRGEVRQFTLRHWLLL

Structure (SMILES)	Ki [1] [nM]	Ki [2] [nM]	Ki [3]	Ki [4]	Ki [5] [nM]
COCCCC/C(=N\OCCN)c1ccc(C(F)(F)F)cc1 [(1E)-5-methoxy-1-[4-(trifluoromethyl)phenyl]pentan-1-one O-(2-aminoethyl)oxime]	299	> 10000			
O=c1n(CCCN2CCN(c3cccc(Cl)c3)CC2)nc2ccccn12 [2-{3-[4-(3-chlorophenyl)piperazin-1-yl]propyl}[1,2,4]triazolo[4,3-a]pyridin-3(2H)-one]	3800	> 10000	84 nM		
CSc1ccc([C@@H]2CN3CCC[C@@H]3c3ccccc32)cc1 [McN-5652-Z-68]			213 nM and 314 nM	939 nM and 208 nM	
CN(C)CCCN1c2ccccc2CCc2ccc(Cl)cc21 [CLOMIPRAMINE HYDROCHLORIDE]		3810			
COCCCCC(=NOCCN)c1ccc(Cl)cc1 [CAS_68717]	6.6	462		1000 nM	2.76
COc1ccc(OC[C@H]2CN(C)CC[C@@H]2c2ccccc2)cc1 [(3R,4S)-3-(4-Methoxy-phenoxymethyl)-1-methyl-4-phenyl-piperidine]		1040			
CN(C)C/C=C(/c1ccc(Br)cc1)c1cccnc1 [cis-[3-(4-Bromo-phenyl)-3-pyridin-3-yl-allyl]-dimethyl-amine;HCl]		> 10000			
c1ccc2c(CCC3CCNCC3)c[nH]c2c1	513	1040		50.2 nM	1.72
CSc1ccc([C@H]2CN3CCC[C@H]3c3ccccc32)cc1 [McN-5652-X-68]			274 nM	142 nM	
CSc1ccc(C2CN3CCCC3c3ccccc32)cc1 (stereo unspecified)		69.8			
